In the experiment the target is BRAF^V600E protein (Homo sapiens, UniProt P15056, V600E). Put plainly: HiBiT cellular BRAF V600E degradation assay. It is filed as cell-based. The following applies: 24 h incubation; for DC50: A375.10 cells (HiBiT tag knocked in at N-terminal of BRAF V600E), concentration at which 50% of total cellular BRAF V600E is degraded; for Emax: A375.10 cells, Emax = amount of residual protein remaining in the cell after compound treatment, read-out: HiBit 24 h Emax. An excerpt: DMEM no-phenol red medium supplemented with L-glutamine was purchased from (Corning). Fetal bovine serum (FBS) was purchased from Gibco (Grand Island, NY, USA). Nano-Glo® HiBiT Lytic Assay Buffer & Reagents were purchased from Promega (Madison, WI, USA). […] Cell culture flasks and 384-well black flat-bottom polystyrene TC-treated microplates were acquired from Corning (Corning, NY, USA).
HiBiT Cellular BRAFv^600E Degradation Assay
Prior to the assay, the A375.10 cell line is maintained in DMEM no-phenol red medium supplemented with 10% fetal bovine serum (FBS). […] Briefly, test compounds were added to the 384-well plate from a top concentration of 10 μM with 11 half log dilutions of compound, plated in duplicate. Then, 30 uL of a suspension of A375.10 cell lines was dispensed into columns 1-24 of the 384-well plates at a cell density of 7500 cells per well. The plates were kept at 37° C. with 5% CO2 for the duration of the assay (6 or 24 hr). After the desired incubation time with compound, 30 uL of Nano-Glo® HiBiT Lytic Buffer containing LgBiT protein (diluted 1:100) and luminescence substrate (diluted 1:50) were added to the cells in columns 1-23 of the assay plate. The plate was the incubated for 30 min on the bench at room temperature. Finally, HiBiT luminescence signal was acquired on EnVision™ Multilabel Reader (PerkinElmer, Santa Clara, CA, USA).
Quantification of luminescence responses measured in the presence of compound were normalized to a high signal/no degradation control (untreated cells+lytic detection reagent) and a low signal/full degradation control (untreated cells, no lytic detection reagent). Data were analyzed with a 4-parameter logistic fit to generate sigmoidal dose-response curves. […] The Emax, or maximum effect of each compound, represents the amount of residual protein remaining in the cell following compound treatment.
On the technique in general: The HiBiT peptide binds its large partner to form an active luciferase.

Chain of BRAF^V600E protein (P15056 whole entry V600E): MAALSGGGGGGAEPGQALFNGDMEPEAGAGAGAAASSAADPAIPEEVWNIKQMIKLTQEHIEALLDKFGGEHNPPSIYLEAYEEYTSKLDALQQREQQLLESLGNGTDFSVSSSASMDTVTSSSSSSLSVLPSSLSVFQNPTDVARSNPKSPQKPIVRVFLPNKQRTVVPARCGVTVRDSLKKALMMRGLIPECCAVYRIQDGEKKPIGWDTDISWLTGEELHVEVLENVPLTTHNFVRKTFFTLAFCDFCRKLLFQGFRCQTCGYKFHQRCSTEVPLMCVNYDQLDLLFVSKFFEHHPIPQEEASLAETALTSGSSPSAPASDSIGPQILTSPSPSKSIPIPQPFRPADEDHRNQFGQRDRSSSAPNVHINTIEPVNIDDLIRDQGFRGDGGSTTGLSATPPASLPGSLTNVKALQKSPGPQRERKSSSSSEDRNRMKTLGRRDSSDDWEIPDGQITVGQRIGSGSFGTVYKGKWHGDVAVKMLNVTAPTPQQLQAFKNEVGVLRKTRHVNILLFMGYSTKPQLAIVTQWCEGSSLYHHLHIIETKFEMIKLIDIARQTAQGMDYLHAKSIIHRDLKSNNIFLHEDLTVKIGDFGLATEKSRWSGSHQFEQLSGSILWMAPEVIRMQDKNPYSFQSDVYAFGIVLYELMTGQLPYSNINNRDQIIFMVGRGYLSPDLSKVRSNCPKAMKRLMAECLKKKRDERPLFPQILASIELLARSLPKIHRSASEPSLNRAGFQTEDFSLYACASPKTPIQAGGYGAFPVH

Consider `O=C(c1c(F)ccc(NS(=O)(=O)N2CCCC2)c1F)c1c[nH]c2ncc(-c3ccc(N4CC5(CN(C(=O)CN6CCC(c7ccc(NC89CC(C8)C(=O)NC9=O)cc7)CC6)C5)C4)cc3)cc12` [Example A117, N-[3-[5-[4-[2-[2-[4-[4-[(2,4-Dioxo-3-azabicyclo[3.1.1]heptan-1-yl)amino]phenyl]piperidin-1-yl]acetyl]-2,6-diazaspiro[3.3]heptan-6-yl]phenyl]-1H-pyrrolo[2,3-b]pyridine-3-carbonyl]-2,4-difluorophenyl]pyrrolidine-1-sulfonamide], for which half-maximal degradation (DC50) was put at 0.192 µM and the Emax (usually the greatest response seen or fitted, relative to the assay's reference) amounted to 24%.

With `CCN(C)S(=O)(=O)Nc1ccc(F)c(C(=O)c2c[nH]c3ncc(-c4ccc(N5CCN(CC(=O)N6CCC(c7ccc(OC8CCC(=O)NC8=O)cc7)CC6)CC5)nc4)cc23)c1F` (stereo not drawn) [Example A3, 5-[6-[4-[2-[4-[4-(2,6-Dioxopiperidin-3-yl)oxyphenyl]piperidin-1-yl]-2-oxoethyl]piperazin-1-yl]pyridin-3-yl]-3-[3-[[ethyl(methyl)sulfamoyl]amino]-2,6-difluorobenzoyl]-1H-pyrrolo[2,3-b]pyridine], the DC50 (usually the midpoint of the concentration-degradation curve) is 0.046 µM and the Emax worked out at 19%.

For the compound `CCN(C)S(=O)(=O)Nc1ccc(F)c(C(=O)c2c[nH]c3ncc(-c4cnc(N5CCN(C(=O)CC6CCN(c7c(F)cc(NC8CCC(=O)NC8=O)cc7F)CC6)CC5)nc4)cc23)c1F` (stereo not drawn) [Example 45, 5-[2-[4-[2-[1-[4-[(2,6-dioxo-3-piperidyl)amino]-2,6-difluoro-phenyl]-4-piperidyl]acetyl]piperazin-1-yl]pyrimidin-5-yl]-3-[3-[[ethyl(methyl)sulfamoyl]amino]-2,6-difluoro-benzoyl]-1H-pyrrolo[2,3-b]pyridine], the 50% degradation concentration (DC50) was determined as 0.0236 µM and the maximal response (Emax) stood at 14.2%.

`CCN(C)S(=O)(=O)Nc1ccc(F)c(C(=O)c2c[nH]c3ncc(-c4cnc(N5CCN(C(=O)CN6CCC(c7ccc(NC8CCC(=O)NC8=O)cc7F)CC6)CC5)nc4)cc23)c1F` (stereo not drawn) [Example A54, 5-[2-[4-[2-[4-[4-[(2,6-Dioxopiperidin-3-yl)amino]-2-fluorophenyl]piperidin-1-yl]acetyl]piperazin-1-yl]pyrimidin-5-yl]-3-[3-[[ethyl(methyl)sulfamoyl]amino]-2,6-difluorobenzoyl]-1H-pyrrolo[2,3-b]pyridine]: it took 0.00394 µM to reach half-maximal degradation (DC50) and the Emax amounted to 9.71%.

With `CCN(C)S(=O)(=O)Nc1cccc(C(=O)c2c[nH]c3ncc(-c4cnc(N5CCN(C(=O)CC6CCN(c7ccc(NC8CCC(=O)NC8=O)cc7F)CC6)CC5)nc4)cc23)c1F` (stereo not drawn) [Example 98, 5-[2-[4-[2-[1-[4-[(2,6-dioxo-3-piperidyl)amino]-2-fluoro-phenyl]-4-piperidyl]acetyl]piperazin-1-yl]pyrimidin-5-yl]-3-[3-[[ethyl(methyl)sulfamoyl]amino]-2-fluoro-benzoyl]-1H-pyrrolo[2,3-b]pyridine], the 50% degradation concentration (DC50) was determined as 0.00467 µM and the Emax came out at 7.42%.

Take `CCN(C)S(=O)(=O)Nc1cccc(C(=O)c2c[nH]c3ncc(-c4cnc(N5CCN(C(=O)CC6(O)CCN(c7ccc(NC8CCC(=O)NC8=O)cc7F)C6)CC5)nc4)cc23)c1F` (stereo not drawn) [Example 102, 5-[2-[4-[2-[1-[4-[(2,6-dioxo-3-piperidyl)amino]-2-fluoro-phenyl]-3-hydroxy-pyrrolidin-3-yl]acetyl]piperazin-1-yl]pyrimidin-5-yl]-3-[3-[[ethyl(methyl)sulfamoyl]amino]-2-fluoro-benzoyl]-1H-pyrrolo[2,3-b]pyridine]: the DC50 worked out at 0.00688 µM and the Emax came to 8.28%.

As to `O=C1CCC(c2ccc(C3CCN(CC(=O)N4CC5(C4)CN(c4ncc(-c6cnc7[nH]cc(C(=O)c8c(F)ccc(NS(=O)(=O)N9CCCC9)c8F)c7c6)cn4)C5)CC3)cc2)C(=O)N1` (stereo not drawn) [Example A118, N-[3-[5-[2-[2-[2-[4-[4-(2,6-Dioxopiperidin-3-yl)phenyl]piperidin-1-yl]acetyl]-2,6-diazaspiro[3.3]heptan-6-yl]pyrimidin-5-yl]-1H-pyrrolo[2,3-b]pyridine-3-carbonyl]-2,4-difluorophenyl]pyrrolidine-1-sulfonamide], the DC50 amounted to 0.029 µM and the Emax was found to be 11%.

Consider `CCN(C)S(=O)(=O)Nc1ccc(F)c(C(=O)c2c[nH]c3ncc(-c4ccc(CN5CCC(C(=O)N6CCN(c7ccc(OC8CCC(=O)NC8=O)cc7)CC6)C5)cc4)cc23)c1F` (stereo not drawn) [Example A19, 5-[4-[[3-[4-[4-(2,6-Dioxopiperidin-3-yl)oxyphenyl]piperazine-1-carbonyl]pyrrolidin-1-yl]methyl]phenyl]-3-[3-[[ethyl(methyl)sulfamoyl]amino]-2,6-difluorobenzoyl]-1H-pyrrolo[2,3-b]pyridine], for which it took 0.084 µM to reach half-maximal degradation (DC50) and the maximal effect (Emax) was 19%.

`CCN(C)S(=O)(=O)Nc1ccc(F)c(C(=O)c2c[nH]c3ncc(-c4cnc(N5CCC(OCC6CCN(c7ccc(NC8CCC(=O)NC8=O)cc7F)CC6)CC5)nc4)cc23)c1F` (stereo not drawn) [Example 182, 5-[2-[4-[[1-[4-[(2,6-dioxo-3-piperidyl)amino]-2-fluoro-phenyl]-4-piperidyl]methoxy]-1-piperidyl]pyrimidin-5-yl]-3-[3-[[ethyl(methyl)sulfamoyl]amino]-2,6-difluoro-benzoyl]-1H-pyrrolo[2,3-b]pyridine]: the 50% degradation concentration (DC50) worked out at 0.0179 µM and the maximal response (Emax) is 7.7%.

As for `CCN(C)S(=O)(=O)Nc1ccc(F)c(C(=O)c2c[nH]c3ncc(-c4ccc(N5CCN(C(=O)CN(C)C(=O)Cc6ccc(NC7CCC(=O)NC7=O)cc6)CC5)nc4)cc23)c1F` (stereo not drawn) [Example A39, 2-[4-[(2,6-dioxopiperidin-3-yl)amino]phenyl]-N-[2-[4-[5-[3-[3-[[ethyl(methyl)sulfamoyl]amino]-2,6-difluorobenzoyl]-1H-pyrrolo[2,3-b]pyridin-5-yl]pyridin-2-yl]piperazin-1-yl]-2-oxoethyl]-N-methylacetamide], the half-maximal degradation concentration (DC50) came out at 0.035 µM and the Emax was 18%.

In the case of `CCN(C)S(=O)(=O)Nc1ccc(F)c(C(=O)c2c[nH]c3ncc(-c4ccc(CN5CCN(C(=O)CN6CCC(c7ccc(OC8CCC(=O)NC8=O)cc7)CC6)CC5)cc4)cc23)c1F` (stereo not drawn) [Example A22, 5-[4-[[4-[2-[4-[4-(2,6-Dioxopiperidin-3-yl)oxyphenyl]piperidin-1-yl]acetyl]piperazin-1-yl]methyl]phenyl]-3-[3-[[ethyl(methyl)sulfamoyl]amino]-2,6-difluorobenzoyl]-1H-pyrrolo[2,3-b]pyridine], half-maximal degradation (DC50) was put at 0.077 µM and the Emax amounted to 20%.

Turning to `CCN(C)S(=O)(=O)Nc1ccc(F)c(C(=O)c2c[nH]c3ncc(C#CC4CCN(C(=O)CN5CCC(c6ccc(NC7CCC(=O)NC7=O)cc6)CC5)CC4)cc23)c1F` (stereo not drawn) [Example A43, 5-[2-[1-[2-[4-[4-[(2,6-Dioxopiperidin-3-yl)amino]phenyl]piperidin-1-yl]acetyl]piperidin-4-yl]ethynyl]-3-[3-[[ethyl(methyl)sulfamoyl]amino]-2,6-difluorobenzoyl]-1H-pyrrolo[2,3-b]pyridine], the half-maximal degradation concentration (DC50) amounted to 0.057 µM and the Emax worked out at 32%.

For the compound `O=C1CCC(Nc2ccc(N3CCC(O)(CC(=O)N4CCN(c5ccc(-c6cnc7[nH]cc(C(=O)c8c(F)ccc(NS(=O)(=O)N9CC[C@@H](F)C9)c8F)c7c6)cn5)CC4)CC3)c(F)c2)C(=O)N1` (stereo partly drawn) [Example 190, (3R)—N-[3-[5-[6-[4-[2-[1-[4-[(2,6-dioxo-3-piperidyl)amino]-2-fluoro-phenyl]-4-hydroxy-4-piperidyl]acetyl]piperazin-1-yl]-3-pyridyl]-1H-pyrrolo[2,3-b]pyridine-3-carbonyl]-2,4-difluoro-phenyl]-3-fluoro-pyrrolidine-1-sulfonamide], half-maximal degradation (DC50) was put at 0.00272 µM and the maximal effect (Emax) worked out at 7.07%.

As to `CCN(C)S(=O)(=O)Nc1ccc(F)c(C(=O)c2c[nH]c3ncc(-c4ccc(N5C[C@H]6CC[C@@H](C5)N6C(=O)CN5CCC(c6ccc(NC7CCC(=O)NC7=O)cc6)CC5)nc4)cc23)c1F` (mixture of isomers) [Example A71, 3-[3-[[Ethyl(methyl)sulfamoyl]amino]-2,6-difluorobenzoyl]-5-[6-[rac-(1R,5S)-8-[2-[4-[4-[(2,6-dioxopiperidin-3-yl)amino]phenyl]piperidin-1-yl]acetyl]-3,8-diazabicyclo[3.2.1]octan-3-yl]pyridin-3-yl]-1H-pyrrolo[2,3-b]pyridine], it took 0.028 µM to reach half-maximal degradation (DC50) and the maximal effect (Emax) amounted to 23%.

Consider `CCN(C)S(=O)(=O)Nc1ccc(F)c(C(=O)c2c[nH]c3ncc(-c4ccc(N5CCN(C(=O)CC6(O)CCN(c7ccc(N8CCC(=O)NC8=O)cc7F)CC6)CC5)nc4)cc23)c1F` [Example 168, 5-[6-[4-[2-[1-[4-(2,4-dioxohexahydropyrimidin-1-yl)-2-fluoro-phenyl]-4-hydroxy-4-piperidyl]acetyl]piperazin-1-yl]-3-pyridyl]-3-[3-[[ethyl(methyl)sulfamoyl]amino]-2,6-difluoro-benzoyl]-1H-pyrrolo[2,3-b]pyridine], for which the half-maximal degradation concentration (DC50) was determined as 0.003 µM and the Emax stood at 10.2%.

Source of the values: patent US12559492B2, “BRAF degraders” (C4 Therapeutics, Inc., priority 2020, dated 2026).
